Source: patent US6277383A, “Ryegrass pollen allergen” (University of Melbourne, priority 1995, dated 2001)

Experiments:
[1] = tested on: IgE affinity purified from recombinant allergens and IgE from whole serum of allergic individuals; assay: Two-dimensional Western blot: IgE binding to allergens; design: species or system human; conditions: IgE preparations that bind: AP12R, AP13R, AP19R = affinity purified from recombinant Lol p Ib.1 fragment IH, Lol p Ia clone 13R, Lol p Ib.2; TIgE = whole serum
From the text: Serum used in the experiment to identify allergen regions of Lol p Ia and Lol p Ib was collected by Dr. R. Phomley at the Epworth Hospital (Richmond, Australia) from patients with a history of allergy to ryegrass pollen and a positive skin test to ryegrass pollen extract. IgE was affinity-purified from recombinant allergens as previously described (Singh, et al., (1991) Proc. Nat'l Acad. Sci. USA, […]; Example 2) except recombinant proteins were derived from lambda-gt11 culture rather than pGEX cultures.
(§1) Two dimensional (2D)-PAGE was performed in a mini-Protean II 2-D cell (Biorad, Richmond, Calif.) according to the manufacturer instructions. The proteins were diluted 1:1 in 4% CHAPS. […] The first dimension gel was run for 3.5 hours. The econd dimension gel was run for 45 minutes. Proteins on 2D-PAGE gels were silver stained to reveal the protein profile.
Conditions for electrophoresis and Western blotting and for the processing of Western blots with MAbs and IgE were as described by Singh, et al., (1985) Int. Arch. Allergy Appl. Immun., 78:300.

[2] = Two dimensional gel electrophoresis of ryegrass pollen proteins (pI); format: physicochemical, Lolium perenne; conditions: allergen spot on two dimensional gel
Procedure: as §1

[3] = tested on: IgE from sera of allergic indivs.; assay: Screening of lambda-gt 11 cDNA clones for IgE binding; design: species or system human; key: ++: strongest binding; -: no binding; conditions: protein expressed by lambda-gt 11 clone, plaque lift
Procedure: (§2) Poly (A+) mRNA isolated from mature rye grass pollen by the phenol method ([…] and Michaels, (1984) Plant Mol. Biol. Rep., 2:24-28) was used to construct a cDNA library in the vector lambda-gt 11. The library was then screened with antibody probes to detect sequences expressing Group I proteins. E. coli […] transfected with 3×10^4 recombinant phages were plated and incubated at 42° C. for 3 h. The plates were overlaid with a dry 132 mm nitrocellulose (NC) filter previously soaked in 10 mm IPTG and transferred to 37° C. After incubation for 3 h the filters were carefully peeled off and incubated in 20 ml per filter of MTBS (10% w/v non-fat milk powder, 50 mm Tris-HCI, pH 7.6, 150 mM Nacl) for 30 min. at room temperature. A second set of NC filters was placed on phage plates and after incubating for 3 h were treated as above. Both sets of NC filters were tested for binding of MAb 40.1 to plaques by the method described in Huynh et al. (1985) In: DNA Cloning, a practical approach, Glover, D. M. (ed.) Vol. 1, pp. 49-78, IRL Press, Oxford, England. The antibody positive plaques were picked, purified, then replated and tested for binding to probes. The positive clones were plaque-purified and tested for IgE binding using sera from grass pollen-allergic subjects. Eighteen clones were selected as encoding proteins recognized by both Lol p I-specific MAbs and IgE antibodies (Table 1). The largest of the cDNA clones, 1.2kb in size, that expressed rye-grass allergenic protein was initially selected for further characterization and sequencing, and designated clone lambda-12R (FIG. 1a).

MAb 40.1 = assay: Antibody screening of lambda-gt 11 cDNA clones: binding of MAb 40.1; design: key: ++: strongest binding; -: no binding; conditions: protein expressed by lambda-gt 11 clone in E. coli Y1090, plaque lift
Procedure: as §2

[4] = tested on: human IgE of individual sera; assay: Peptide dot blot immunoassay: human IgE; format: binding; conditions: for IgE Binding (symbol): sera diluted 1:4
Procedure: (§3) The peptides were dissolved in water to give a 1.6 mM stock solution. Insoluble peptides were dissolved by sonication (Branson Sonifier 450, USA) for 1 minute.
(§4) The peptides were immobilized onto nitrocellulose (NC) filter by using a modified method published elsewhere (Sithigonglu (1991) J. Immunol. Methods, 141:23-32). Two μl of the peptide stock solutions were spotted on the NC filter (Schleicher & Schuell, W. Germany) about 1 cm apart. After the strips were dried and baked at 80° C. for one hour, they were fixed by exposure, in a tightly sealed plastic box, to vapor from 0.2% glutaraldehyde in PBS at room temperature (18° C.) for one hour. After washing thoroughly with distilled water, the NC filters were blocked with Blotto (10% non-fat dry milk in PBS) for two hours and washed in 1×Tween-PBS (0.1% Tween-20 in PBS) and 2×PBS, five minutes each.
(§5) The peptides were then screened for human IgE and mouse/rabbit IgG epitopes with individual sera (diluted 1:4 in PBS with 0.5% BSA), MAbs FMC A7 (Smart et al. (1983) Int. Arch. Allergy Clin. Immunol. 72: 243) and polyclonal rabbit anti-Lol p Ib antibody. The rabbit anti-sera was a gift from Dr. Jenny Roland, Alfred Hospital, Melbourne, Australia.
(§6) The intensity of each dot blot was measured by densitometer (Pharmacia LKB UltraScan XL, Sweden). Densitometric values greater than two were considered as positive binding in comparison to the background. For every peptide, the sera and antibody values have been added (score/peptide) and divided by the number of positive sera to express the final value as an average (score/sera). Sera C1 and C2 were not grass allergic and were used as negative controls. C refers to crude ryegrass pollen extract (1 μg/dot) as positive control.

[5] = tested on: Mab FMC-A7 and rabbit polyclonal anti-Lol p Ib antiserum; assay: Peptide dot blot immunoassay: mouse/rabbit IgG; format: binding
Procedure: as §3, §4, §5, §6

MAb 12.3 = assay: Antibody screening of lambda-gt 11 cDNA clones: binding of MAb 12.3; design: key to Binding of MAb 12.3: ++: strongest binding; -: no binding; conditions: protein expressed by lambda-gt 11 clone in E. coli Y1090, plaque lift
Procedure: as §2

Sequence | IgE binding [1] | pI [2] | Binding of IgE from sera of allergic indivs. [3] | Binding of MAb 40.1 (MAb 40.1) | IgE Binding (symbol) [4] | Mouse/rabbit IgG-reactivity (in words) [5] | Human IgE-reactivity (in words) [4] | Binding of MAb 12.3 (MAb 12.3)
AAATPATPAATPA [Peptide 2] | AP13R TIgE | 5.9 | - | ++ |  |  |  | 
AAEGATPEAKYD [Peptide 13] | TIgE | 7 |  | ++ | + (Densitometric values greater than two were considered as positive binding) |  |  | 
AALTKAITAMTQA [Peptide 29] |  |  |  |  | + (Densitometric values greater than two were considered as positive binding) |  |  | 
AANAPPADKFKI [Peptide 7] | AP12R,AP19R and TIgE | 6 | - | ++ | + (Densitometric values greater than two were considered as positive binding) | highest mouse/rabbit IgG-reactivity | highest human IgE-reactivity | 
AATPAAAGGKAT [Peptide 3] | AP13R TIgE | 6.45 | - | ++ |  |  |  | 
ADAGYTPAAAAT [Peptide 1] | AP13R TIgE | 5.5 | - | - |  | highest mouse/rabbit IgG-reactivity |  | -
AKYDAFVTALTE [Peptide 14] | TIgE | 7.3 | ++ | ++ |  |  |  | ++
ALTEGLRVIAGA [Peptide 15] | TIgE | 9 | - | - |  |  |  | -
AMTQAQKAGKPA [Peptide 30] |  |  |  |  | + (Densitometric values greater than two were considered as positive binding) |  | highest human IgE-reactivity | 
ATAANAAPTNDK [Peptide 21] |  |  |  |  | + (Densitometric values greater than two were considered as positive binding) |  | highest human IgE-reactivity | 
AVKPATEEVPAA [Peptide 17] | TIgE | < 5.65 | - | ++ |  |  |  | 
ESAFNKALNECT [Peptide 23] |  |  |  |  | + (Densitometric values greater than two were considered as positive binding) | highest mouse/rabbit IgG-reactivity | highest human IgE-reactivity | 
ETYKFIPSLEAA [Peptide 25] |  |  |  |  | + (Densitometric values greater than two were considered as positive binding) |  |  | 
EVKYAVFEAALT [Peptide 28] |  |  |  |  |  | highest mouse/rabbit IgG-reactivity |  | 
FSESSKGLLATS [Peptide 9] | AP12R,AP19R and TIgE | 7.2 | - | - |  |  |  | -
GAATAAAGGYKA [Peptide 34] |  |  |  |  | + (Densitometric values greater than two were considered as positive binding) |  | highest human IgE-reactivity | 
GELQIVDKIDAA [Peptide 19] |  |  |  |  | + (Densitometric values greater than two were considered as positive binding) | highest mouse/rabbit IgG-reactivity | highest human IgE-reactivity | 
GFKAAVAAAANA [Peptide 6] | AP12R,AP19R and TIgE | 6.45 | - | ++ | + (Densitometric values greater than two were considered as positive binding) |  |  | 
GKATTDEQKLLE [Peptide 4] | AP13R TIgE | 7 | - | ++ |  |  |  | 
IAGALEVHAVKPA [Peptide 16] | TIgE | < 5.65 | - | ++ | + (Densitometric values greater than two were considered as positive binding) |  | highest human IgE-reactivity | 
KFKIFEAAFSES [Peptide 8] | AP12R,AP19R and TIgE | 6.45 | - | - |  |  |  | -
KLLEDVNAGFKA [Peptide 5] | AP12R,AP19R and TIgE | 6 | - | ++ | + (Densitometric values greater than two were considered as positive binding) |  |  | 
LATSAAKAPGLI [Peptide 10] | AP12R,AP19R and TIgE | 8.3 | - | - | + (Densitometric values greater than two were considered as positive binding) |  |  | -
NECTGGAYETYK [Peptide 24] |  |  |  |  | + (Densitometric values greater than two were considered as positive binding) | highest mouse/rabbit IgG-reactivity |  | 
PGLIPKLNTAYD [Peptide 11] | AP12R,AP19R and TIgE | 10.6 | - | ++ |  |  |  | 
TAYDVAYKAAEG [Peptide 12] | AP12R,AP19R and TIgE | 8.0 | ++ | ++ |  |  |  | ++
VPAAKIPTGELQI [Peptide 18] |  |  | ++ | ++ | + (Densitometric values greater than two were considered as positive binding) |  |  | ++
YAATVAAPEVKY [Peptide 27] |  |  |  |  | + (Densitometric values greater than two were considered as positive binding) |  |  | 
